Legend:
[1] = system: IKZF1 or IKZF3; conditions: more potent than older IMiDs; stated as 'may be'; cited from earlier work
[2] = system: SU-DHL-10 cells; assay: Cell viability assay (CellTiter-Glo) in SU-DHL-10 cells; type: cell-based, human
[3] = system: SU-DHL-10 cells; assay: as above; type: cell-based, human; conditions: SU-DHL-10, single agent, 5 days
Description: (§1) Experiments were performed in cultured human cells to assess the efficacy of combined EZH2 inhibitor and immunomodulatory drug (e.g., an IMiD) treatment using an EZH2-mutant DLBCL cell line, SU-DHL-10, and an EZH2-wild type line, OCI-LY7. Cells were purchased from Nanjing Cobioer Biotechnology. SU-DHL-10 and OCI-LY7 cells were cultured at 37° C. with 5% CO2 in RPMI 1640 Medium supplemented with 10% fetal bovine serum. Cells were authenticated using the short tandem repeat (STR) assays. Mycoplasma test results were negative.
(§2) The cultured cells were seeded at a density of 5000 cells per well in 96-well assay plates and treated with test compounds at 10 μM followed by a 11-point 3-fold serial dilution or an 8-point 10-fold serial dilution. Cell viability was determined after 5 days, using the CellTiter-Glo assay kit (Promega) according to the manufacturer's instructions. The dose-response curves were determined and IC50 values were calculated using the GraphPad Prism software following a nonlinear regression (least squares fit) method. Each data point in the figure represents the mean values of at least two technical replicates ± standard deviation.
(§3) Cells were treated with EZH2 inhibitors in the presence of IMiDs at concentrations sufficient to induce degradation of IKZF1 and IKZF3 but not enough to kill cells. CC-122 and CC-220 were tested at a concentration of 1 μM; CC-92480 and CFT7455 were tested at a concentration of 1 nM; and CC-99282 was tested at a concentration of 10 nM.

[4] = system: OCI-LY7 cells; assay: Cell viability assay (CellTiter-Glo) in OCI-LY7 cells; type: cell-based, human; conditions: for cell viability, response of the cells to the single agent: OCI-LY7, single agent, 5 days
Description: as §1, §2, §3

[5] = SU-DHL-10, in the presence of 100 nM CPI-0209
[6] = SU-DHL-10, in the presence of 100 nM SHR2554
[7] = OCI-LY7, in the presence of 100 nM CPI-0209
[8] = OCI-LY7, in the presence of 100 nM SHR2554

SMILES	potency with regard to IKZF1 or IKZF3 degradation relative to older IMiDs [1]	cell viability (sensitivity of the cells to the compound in combination) [2, 5]	cell viability (sensitivity of the cells to the compound in combination) [2, 6]	cell viability, response of the cells to the single agent [3]	cell viability (sensitivity of the cells to the compound in combination) [4, 7]	cell viability (sensitivity of the cells to the compound in combination) [4, 8]	cell viability, response of the cells to the single agent [4]
N#Cc1ccc(N2CCN(Cc3ccc(COc4cccc5c4CN([C@H]4CCC(=O)NC4=O)C5=O)cc3)CC2)c(F)c1 [CC-92480, mezigdomide]	1000 fold						
O=C1CC[C@H](N2C(=O)c3cccc(NCc4ccc(CN5CC(N6CCOCC6)C5)cc4F)c3C2=O)C(=O)N1 [CC-99282, (S)-2-(2,6-dioxopiperidin-3-yl)-4-((2-fluoro-4-((3-morpholinoazetidin-1-yl)methyl)benzyl)amino)isoindoline-1,3-dione]		lowered cell viability more than treatment with CC-99282 alone	lowered cell viability more than treatment with CC-99282 alone	moderately responsive	lowered cell viability more than treatment with CC-99282 alone	lowered cell viability more than treatment with CC-99282 alone	moderately responsive
O=C1CC[C@H](N2C(=O)c3cccc4c(Cc5ccc(CN6CCOCC6)cc5)ccc2c34)C(=O)N1 [CFT7455, (S)-3-(6-(4-(morpholinomethyl)benzyl)-2-oxobenzo[cd]indol-1(2H)-yl)piperidine-2,6-dione]		lowered cell viability more than treatment with CFT7455 alone	lowered cell viability more than treatment with CFT7455 alone	moderately responsive	lowered cell viability more than treatment with CFT7455 alone	lowered cell viability more than treatment with CFT7455 alone	moderately responsive

Source: patent US20240335452A1, “COMPOSITIONS AND METHODS OF COMBINATION THERAPY FOR TARGETING LYMPHOMA” (Cullgen (Shanghai), Inc., priority 2021, published 2024)
